Measured values as given in the RepoRT retention time repository.

Test: RP, Waters ACQUITY UPLC HSS T3, 100 × 2.1 mm, 1.8 µm, 0.3 mL/min, estimated dead time 0.73 min; A: water + 0.1% formic acid, pH 3; B: methanol + 0.1% formic acid, pH 3; gradient (min/%B) 0/1 1/15 4/35 7/95 9/95 10/1 14/95
Details: stereoisomer not certain

Row | SMILES | LC retention time
1 | O=[N+]([O-])c1ccccc1O [2-nitrophenol] | 8.45 min
2 | O=C1CC(C(=O)O)NC(=O)N1 [L-dihydroorotic acid] | 1.07 min
3 | O=C(O)CC(O)(CC(=O)O)C(=O)O [citric acid monohydrate] | 8.41 min
4 | CC12CCC3c4ccc(O)cc4CCC3C1CCC2O (configuration not stated) [estradiol] | 19.7 min
5 | CC(C)CC(N)C(=O)O (configuration not stated) [leucine] | 2.53 min
6 | CSCCC(N)C(=O)O (configuration not stated) [methionine] | 1.21 min
7 | NC(Cc1ccccc1)C(=O)O (configuration not stated) [phenylalanine] | 4.45 min
8 | CC(=O)C1CCC2C3CCC4=CC(=O)CCC4(C)C3CCC12C (configuration not stated) [progesterone] | 10.1 min
9 | Cc1cc2nc3c(=O)[nH]c(=O)nc-3n(CC(O)C(O)C(O)CO)c2cc1C (configuration not stated) [riboflavin] | 7.22 min
10 | CC(CCC(=O)NCC(=O)O)C1CCC2C3C(O)CC4CC(O)CCC4(C)C3CC(O)C12C (configuration not stated) [sodium glycocholate hydrate] | 11 min
11 | NC(Cc1c[nH]c2ccccc12)C(=O)O (configuration not stated) [tryptophan] | 5.45 min
12 | O=c1ccn(C2OC(CO)C(O)C2O)c(=O)[nH]1 (configuration not stated) [uridine] | 2.2 min
